In ChEMBL document CHEMBL1201862, “PubChem BioAssay data set” (2004):
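Grown in 96-well plates, cells were treated for 48 hours with each compound at five concentrations. Insufficient inhibition: endpoint recorded as highest concentration tested. GI50: concentration for 50% inhibition of growth.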 The source made the active and inactive calls. No stated cut-off is given here; in the data, active = GI50 up to about 1.1 µM and inactive = higher.

Key:
Assay in all cases: NCI anticancer screen, dose series, 48 h
COLO 205 = test system: COLO 205
OVCAR-3 = test system: OVCAR-3
SK-MEL-5 = test system: SK-MEL-5
SF-539 = test system: SF-539
NCI-H23 = test system: NCI-H23
HL-60 = test system: HL-60
MDA-MB-435 = test system: MDA-MB-435
HOP-92 = test system: HOP-92
ACHN = test system: ACHN
CAKI-1 = test system: CAKI-1
MCF7 = test system: MCF7
RXF 393 = test system: RXF 393
SF-268 = test system: SF-268
NCI-H460 = test system: NCI-H460
BT-549 = test system: BT-549
TK-10 = test system: TK-10
SR = test system: SR
SW-620 = test system: SW-620
HCT-116 = test system: HCT-116
HCC 2998 = test system: HCC 2998

Row | Structure (SMILES) | GI50 (COLO 205) | GI50 (OVCAR-3) | GI50 (SK-MEL-5) | GI50 (SF-539) | GI50 (NCI-H23) | GI50 (HL-60) | GI50 (MDA-MB-435) | GI50 (HOP-92) | GI50 (ACHN) | GI50 (CAKI-1) | GI50 (MCF7) | GI50 (RXF 393) | GI50 (SF-268) | GI50 (NCI-H460) | GI50 (BT-549) | GI50 (TK-10) | GI50 (SR) | GI50 (SW-620) | GI50 (HCT-116) | GI50 (HCC 2998)
1 | COc1ccc(Nc2nc3ccccc3n3cccc23)cc1OC | 14.4 µM (inactive) | 19.1 µM (inactive) | 11.9 µM (inactive) | 16.6 µM (inactive) | 14.8 µM (inactive) | 0.0528 µM (active) | 13.8 µM (inactive) | 34.4 µM (inactive) | 21 µM (inactive) | 25.2 µM (inactive) | 16.1 µM (inactive) | 12.9 µM (inactive) | 21.9 µM (inactive) | 12.9 µM (inactive) | 18.5 µM (inactive) | 16.5 µM (inactive) | 12.8 µM (inactive) | 16.2 µM (inactive) | 16.9 µM (inactive) | 14.4 µM (inactive)
2 | CC[C@@]1(O)C(=O)OCc2c1cc1n(c2=O)Cc2c-1nc1ccccc1c2/C=N\NC(=O)C(N)CC(C)C (stereo not given in full) | 0.708 µM (active) | 0.297 µM (active) | < 0.0128 µM (active) | < 0.01 µM (active) | < 0.01 µM (active) | < 0.01 µM (active) | 0.143 µM (active) | 0.0815 µM (active) | < 0.01 µM (active) | < 0.01 µM (active) | < 0.01 µM (active) | < 0.0143 µM (active) | < 0.01 µM (active) | < 0.01 µM (active) | 0.0382 µM (active) | 3.12 µM (inactive) | < 0.01 µM (active) | 0.0887 µM (active) | 0.0161 µM (active) | 0.118 µM (active)
3 | COc1ccc(N2CN3OC(=O)N(c4ccc(OC)cc4)[C@@]3(c3ccccc3)C2)cc1 | 13.4 µM (inactive) | 13.1 µM (inactive) | 11.9 µM (inactive) | 17 µM (inactive) | 23.6 µM (inactive) | 2.77 µM (inactive) | 2.4 µM (inactive) | 15.9 µM (inactive) | 61.9 µM (inactive) | 19.1 µM (inactive) | 16.9 µM (inactive) | 19.9 µM (inactive) | 73.6 µM (inactive) | 16.6 µM (inactive) | 21.5 µM (inactive) | 30.8 µM (inactive) | 2.79 µM (inactive) | 6.04 µM (inactive) | 18.7 µM (inactive) | 11.5 µM (inactive)
4 | O=S(=O)(O)c1cc(S(=O)(=O)O)c2c(/N=N/c3ccc(/N=N/c4ccccc4)cc3)c(O)ccc2c1 | > 100 µM (inactive) | > 100 µM (inactive) | > 100 µM (inactive) | > 100 µM (inactive) | > 100 µM (inactive) | > 100 µM (inactive) | > 100 µM (inactive) | > 100 µM (inactive) | > 100 µM (inactive) | > 100 µM (inactive) | > 100 µM (inactive) | > 100 µM (inactive) | > 100 µM (inactive) | > 100 µM (inactive) | > 100 µM (inactive) | > 100 µM (inactive) | > 100 µM (inactive) | > 100 µM (inactive) | > 100 µM (inactive) | > 100 µM (inactive)
5 | NC1CC(=O)c2c(Cl)sc(Cl)c21 (stereo not given) | 1.63 µM (inactive) | 6.47 µM (inactive) | 8.79 µM (inactive) | 2.37 µM (inactive) | 10.5 µM (inactive) | 1.6 µM (inactive) | 4.62 µM (inactive) | 1.47 µM (inactive) | 2.33 µM (inactive) | 2.7 µM (inactive) | 1.82 µM (inactive) | 1.45 µM (inactive) | 15.8 µM (inactive) | 14.5 µM (inactive) | 3.76 µM (inactive) | 2.43 µM (inactive) | 0.493 µM (active) | 1.68 µM (inactive) | 1.43 µM (inactive) | 10.1 µM (inactive)
6 | COc1ncc(/C=C2\OC(=O)c3ccccc32)c(OC)n1 | > 100 µM (inactive) | 24.9 µM (inactive) | 9.95 µM (inactive) | 12.7 µM (inactive) | > 100 µM (inactive) | > 100 µM (inactive) | 77.8 µM (inactive) | 47.5 µM (inactive) | 24.4 µM (inactive) | 0.21 µM (active) | 25.8 µM (inactive) | 7 µM (inactive) | 32.6 µM (inactive) | 17.9 µM (inactive) | 0.402 µM (active) | 16.2 µM (inactive) | 30.1 µM (inactive) | > 100 µM (inactive) | > 100 µM (inactive) | 76 µM (inactive)
7 | O=C1c2cccc([N+](=O)[O-])c2C(=O)N1Cc1ccccc1 | > 100 µM (inactive) | > 100 µM (inactive) | > 100 µM (inactive) | > 100 µM (inactive) | > 100 µM (inactive) | > 100 µM (inactive) | > 100 µM (inactive) | > 100 µM (inactive) | > 100 µM (inactive) | > 100 µM (inactive) | > 100 µM (inactive) | > 100 µM (inactive) | > 100 µM (inactive) | > 100 µM (inactive) | > 100 µM (inactive) | > 100 µM (inactive) | > 100 µM (inactive) | > 100 µM (inactive) | > 100 µM (inactive) | > 100 µM (inactive)
